pKd: −log10 of the molar value. Calls of active or inactive are those of the source. Cut-off read from the data, not from the text of the source, for most assays here: actives have a measured Kd and inactives only a lower limit.
Key:
[1] = target: Casein kinase I isoform gamma-1 (Homo sapiens, UniProt Q9HCP0)
LIM domain kinase 1 = LIM domain kinase 1 (Homo sapiens, UniProt P53667)
[2] = target: Calcium/calmodulin-dependent protein kinase kinase 2 (Homo sapiens, UniProt Q96RR4)
[3] = target: Cyclin-dependent kinase 1 (Homo sapiens, UniProt P06493)
Sequence of Cyclin-dependent kinase 1 (P06493 whole entry): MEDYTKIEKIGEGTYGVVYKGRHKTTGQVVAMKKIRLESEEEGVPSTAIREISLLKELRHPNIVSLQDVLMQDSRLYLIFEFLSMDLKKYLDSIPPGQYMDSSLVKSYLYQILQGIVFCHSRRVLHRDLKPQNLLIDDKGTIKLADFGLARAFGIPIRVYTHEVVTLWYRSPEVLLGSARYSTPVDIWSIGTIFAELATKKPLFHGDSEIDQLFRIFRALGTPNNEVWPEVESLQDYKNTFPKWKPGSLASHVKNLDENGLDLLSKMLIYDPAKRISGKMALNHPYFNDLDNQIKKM

Ephrin type-B receptor 2 = target: T1, Ephrin type-B receptor 2 (Homo sapiens, UniProt P29323)
T1 sequence (P29323 whole entry): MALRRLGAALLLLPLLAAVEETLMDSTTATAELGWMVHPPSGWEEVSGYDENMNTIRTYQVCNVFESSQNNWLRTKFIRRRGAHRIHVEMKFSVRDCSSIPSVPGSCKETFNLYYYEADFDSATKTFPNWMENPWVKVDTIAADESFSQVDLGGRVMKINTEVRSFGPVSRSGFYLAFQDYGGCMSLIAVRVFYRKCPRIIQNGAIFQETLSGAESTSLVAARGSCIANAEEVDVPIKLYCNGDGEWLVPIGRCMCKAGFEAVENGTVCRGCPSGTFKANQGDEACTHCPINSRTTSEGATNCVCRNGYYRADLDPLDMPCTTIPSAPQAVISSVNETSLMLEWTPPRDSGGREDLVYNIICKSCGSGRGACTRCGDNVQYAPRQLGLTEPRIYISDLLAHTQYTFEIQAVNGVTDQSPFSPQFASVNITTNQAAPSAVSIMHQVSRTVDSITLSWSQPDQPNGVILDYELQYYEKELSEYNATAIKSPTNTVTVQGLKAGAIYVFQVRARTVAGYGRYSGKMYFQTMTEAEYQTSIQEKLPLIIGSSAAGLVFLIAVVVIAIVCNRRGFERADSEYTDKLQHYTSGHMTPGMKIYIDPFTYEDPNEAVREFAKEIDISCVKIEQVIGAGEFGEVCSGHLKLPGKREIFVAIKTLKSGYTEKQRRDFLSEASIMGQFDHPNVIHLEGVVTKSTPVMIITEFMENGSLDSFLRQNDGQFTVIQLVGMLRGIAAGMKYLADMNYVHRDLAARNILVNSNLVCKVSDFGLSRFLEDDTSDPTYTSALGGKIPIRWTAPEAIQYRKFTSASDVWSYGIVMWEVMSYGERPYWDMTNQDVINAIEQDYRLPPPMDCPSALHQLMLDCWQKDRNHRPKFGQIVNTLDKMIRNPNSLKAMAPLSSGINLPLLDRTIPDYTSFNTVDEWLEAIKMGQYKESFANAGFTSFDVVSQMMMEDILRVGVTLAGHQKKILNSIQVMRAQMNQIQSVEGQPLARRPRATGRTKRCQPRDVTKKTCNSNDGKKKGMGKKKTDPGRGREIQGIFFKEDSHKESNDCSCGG

[4] = target: Serine/threonine-protein kinase 10 (Homo sapiens, UniProt O94804)
Sequence of Serine/threonine-protein kinase 10 (O94804 whole entry): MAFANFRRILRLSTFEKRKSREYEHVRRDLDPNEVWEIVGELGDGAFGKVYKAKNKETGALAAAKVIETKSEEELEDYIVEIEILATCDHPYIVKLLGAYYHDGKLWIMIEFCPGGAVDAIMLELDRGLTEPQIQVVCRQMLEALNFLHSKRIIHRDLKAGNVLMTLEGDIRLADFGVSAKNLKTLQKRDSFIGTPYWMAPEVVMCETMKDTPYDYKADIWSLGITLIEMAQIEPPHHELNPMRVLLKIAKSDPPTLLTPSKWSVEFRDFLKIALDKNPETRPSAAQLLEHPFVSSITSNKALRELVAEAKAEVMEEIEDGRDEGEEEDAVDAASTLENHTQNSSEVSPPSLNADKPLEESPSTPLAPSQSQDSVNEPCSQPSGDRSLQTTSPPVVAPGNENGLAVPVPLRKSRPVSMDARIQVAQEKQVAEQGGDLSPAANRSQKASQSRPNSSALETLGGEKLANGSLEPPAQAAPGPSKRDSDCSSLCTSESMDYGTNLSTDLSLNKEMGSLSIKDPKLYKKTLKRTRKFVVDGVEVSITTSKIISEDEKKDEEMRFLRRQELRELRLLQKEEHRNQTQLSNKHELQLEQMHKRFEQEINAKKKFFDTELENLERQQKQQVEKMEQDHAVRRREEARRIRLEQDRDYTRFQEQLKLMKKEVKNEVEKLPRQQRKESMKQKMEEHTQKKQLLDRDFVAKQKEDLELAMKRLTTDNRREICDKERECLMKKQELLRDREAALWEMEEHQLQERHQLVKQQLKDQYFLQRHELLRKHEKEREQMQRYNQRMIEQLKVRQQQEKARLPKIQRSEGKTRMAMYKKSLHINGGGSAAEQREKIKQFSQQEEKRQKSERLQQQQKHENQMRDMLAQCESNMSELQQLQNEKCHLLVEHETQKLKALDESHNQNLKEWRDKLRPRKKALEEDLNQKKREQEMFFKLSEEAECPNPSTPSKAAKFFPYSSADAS

[5] = target: Receptor-interacting serine/threonine-protein kinase 3 (Homo sapiens, UniProt Q9Y572)
Sequence of Receptor-interacting serine/threonine-protein kinase 3 (Q9Y572 whole entry): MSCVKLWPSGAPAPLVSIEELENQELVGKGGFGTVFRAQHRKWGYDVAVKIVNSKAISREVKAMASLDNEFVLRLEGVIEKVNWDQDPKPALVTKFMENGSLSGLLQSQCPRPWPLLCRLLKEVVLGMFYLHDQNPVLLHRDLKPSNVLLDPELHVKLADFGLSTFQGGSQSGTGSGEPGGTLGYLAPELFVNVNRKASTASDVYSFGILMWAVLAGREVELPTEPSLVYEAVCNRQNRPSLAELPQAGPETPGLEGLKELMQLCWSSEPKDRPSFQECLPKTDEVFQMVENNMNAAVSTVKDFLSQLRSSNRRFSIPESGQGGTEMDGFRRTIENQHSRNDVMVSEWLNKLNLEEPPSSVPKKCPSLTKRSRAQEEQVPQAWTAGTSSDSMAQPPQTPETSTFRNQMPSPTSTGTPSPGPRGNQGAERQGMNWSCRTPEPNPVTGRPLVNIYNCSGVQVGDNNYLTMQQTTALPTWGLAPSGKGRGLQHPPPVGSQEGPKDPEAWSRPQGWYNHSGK

[6] = target: Mitogen-activated protein kinase 1 (Homo sapiens, UniProt P28482)
Sequence of Mitogen-activated protein kinase 1 (P28482 whole entry): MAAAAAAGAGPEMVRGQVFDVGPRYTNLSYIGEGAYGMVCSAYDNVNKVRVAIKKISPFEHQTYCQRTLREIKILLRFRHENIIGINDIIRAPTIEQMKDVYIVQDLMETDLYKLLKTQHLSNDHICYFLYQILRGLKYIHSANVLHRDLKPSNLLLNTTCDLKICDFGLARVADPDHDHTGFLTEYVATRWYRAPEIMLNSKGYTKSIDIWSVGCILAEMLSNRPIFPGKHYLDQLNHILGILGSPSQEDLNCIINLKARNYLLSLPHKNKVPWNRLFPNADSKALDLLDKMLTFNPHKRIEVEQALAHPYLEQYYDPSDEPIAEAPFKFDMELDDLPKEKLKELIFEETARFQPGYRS

[7] = target: T2, Mitogen-activated protein kinase kinase kinase 6 (Homo sapiens, UniProt O95382)
T2 sequence (O95382 whole entry): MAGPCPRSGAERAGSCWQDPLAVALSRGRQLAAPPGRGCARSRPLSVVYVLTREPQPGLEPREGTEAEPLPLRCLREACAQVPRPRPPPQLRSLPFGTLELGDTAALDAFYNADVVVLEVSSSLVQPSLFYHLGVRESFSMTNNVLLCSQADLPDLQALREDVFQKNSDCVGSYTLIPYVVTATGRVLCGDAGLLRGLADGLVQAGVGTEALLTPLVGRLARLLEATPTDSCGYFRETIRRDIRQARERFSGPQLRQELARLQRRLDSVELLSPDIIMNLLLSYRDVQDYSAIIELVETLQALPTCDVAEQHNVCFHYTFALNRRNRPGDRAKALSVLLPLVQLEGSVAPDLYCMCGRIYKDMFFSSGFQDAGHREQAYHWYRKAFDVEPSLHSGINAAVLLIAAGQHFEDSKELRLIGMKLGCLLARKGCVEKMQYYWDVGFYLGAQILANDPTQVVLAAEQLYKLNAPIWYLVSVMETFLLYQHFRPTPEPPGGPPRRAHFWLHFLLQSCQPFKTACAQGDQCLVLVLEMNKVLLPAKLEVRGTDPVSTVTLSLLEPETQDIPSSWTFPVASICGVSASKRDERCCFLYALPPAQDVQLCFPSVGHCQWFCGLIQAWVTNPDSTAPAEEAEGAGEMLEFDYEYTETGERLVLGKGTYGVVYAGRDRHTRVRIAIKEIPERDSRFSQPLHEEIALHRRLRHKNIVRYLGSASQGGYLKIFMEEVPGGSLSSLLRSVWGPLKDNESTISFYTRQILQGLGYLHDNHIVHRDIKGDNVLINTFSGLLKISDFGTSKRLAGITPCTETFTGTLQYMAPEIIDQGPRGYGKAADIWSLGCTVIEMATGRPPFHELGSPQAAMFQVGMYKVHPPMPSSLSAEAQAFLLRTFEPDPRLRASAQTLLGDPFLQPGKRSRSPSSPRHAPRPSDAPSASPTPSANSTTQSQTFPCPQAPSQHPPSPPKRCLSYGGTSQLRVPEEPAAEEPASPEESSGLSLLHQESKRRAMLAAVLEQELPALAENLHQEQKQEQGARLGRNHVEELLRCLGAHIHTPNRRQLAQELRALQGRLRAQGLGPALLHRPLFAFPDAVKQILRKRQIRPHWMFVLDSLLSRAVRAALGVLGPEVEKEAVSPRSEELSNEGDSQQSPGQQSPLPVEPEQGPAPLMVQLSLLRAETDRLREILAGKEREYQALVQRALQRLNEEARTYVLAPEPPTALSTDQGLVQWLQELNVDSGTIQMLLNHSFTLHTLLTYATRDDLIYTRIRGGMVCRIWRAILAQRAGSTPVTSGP

[8] = target: TRAF2 and NCK-interacting protein kinase (Homo sapiens, UniProt Q9UKE5)
Note: in the data inactive means no Kd found up to 30 µM.

Sequence of Casein kinase I isoform gamma-1 (Q9HCP0 whole entry, the tested form may be a part, canonical isoform): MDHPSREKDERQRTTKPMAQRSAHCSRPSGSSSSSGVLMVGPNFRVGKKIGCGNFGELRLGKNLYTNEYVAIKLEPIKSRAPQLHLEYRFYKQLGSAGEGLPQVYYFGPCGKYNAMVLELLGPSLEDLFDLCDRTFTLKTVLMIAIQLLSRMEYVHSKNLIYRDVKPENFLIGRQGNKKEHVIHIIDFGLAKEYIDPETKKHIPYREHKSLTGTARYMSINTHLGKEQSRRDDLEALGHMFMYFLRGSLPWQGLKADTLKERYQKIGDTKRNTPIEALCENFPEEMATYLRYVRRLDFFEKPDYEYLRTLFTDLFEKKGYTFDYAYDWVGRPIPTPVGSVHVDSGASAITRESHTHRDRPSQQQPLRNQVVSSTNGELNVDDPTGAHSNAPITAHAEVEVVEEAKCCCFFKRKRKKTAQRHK
Sequence of Calcium/calmodulin-dependent protein kinase kinase 2 (Q96RR4 whole entry): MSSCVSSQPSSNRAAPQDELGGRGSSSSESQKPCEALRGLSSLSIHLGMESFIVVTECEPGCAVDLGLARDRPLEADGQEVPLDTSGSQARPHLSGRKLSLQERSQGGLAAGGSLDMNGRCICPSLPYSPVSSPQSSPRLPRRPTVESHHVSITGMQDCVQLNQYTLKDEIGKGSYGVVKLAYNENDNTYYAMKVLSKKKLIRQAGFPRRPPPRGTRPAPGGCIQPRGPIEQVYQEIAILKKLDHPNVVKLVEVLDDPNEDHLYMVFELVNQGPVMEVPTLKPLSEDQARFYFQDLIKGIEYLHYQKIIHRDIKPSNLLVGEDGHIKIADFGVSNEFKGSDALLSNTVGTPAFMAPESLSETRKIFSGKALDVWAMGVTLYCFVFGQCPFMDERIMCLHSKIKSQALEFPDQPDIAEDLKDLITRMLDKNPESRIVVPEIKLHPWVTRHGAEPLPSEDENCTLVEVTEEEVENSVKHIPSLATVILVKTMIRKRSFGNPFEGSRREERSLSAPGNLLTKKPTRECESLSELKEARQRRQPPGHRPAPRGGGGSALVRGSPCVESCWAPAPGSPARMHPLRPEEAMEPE
Sequence of LIM domain kinase 1 (P53667 whole entry, the tested form may be a part): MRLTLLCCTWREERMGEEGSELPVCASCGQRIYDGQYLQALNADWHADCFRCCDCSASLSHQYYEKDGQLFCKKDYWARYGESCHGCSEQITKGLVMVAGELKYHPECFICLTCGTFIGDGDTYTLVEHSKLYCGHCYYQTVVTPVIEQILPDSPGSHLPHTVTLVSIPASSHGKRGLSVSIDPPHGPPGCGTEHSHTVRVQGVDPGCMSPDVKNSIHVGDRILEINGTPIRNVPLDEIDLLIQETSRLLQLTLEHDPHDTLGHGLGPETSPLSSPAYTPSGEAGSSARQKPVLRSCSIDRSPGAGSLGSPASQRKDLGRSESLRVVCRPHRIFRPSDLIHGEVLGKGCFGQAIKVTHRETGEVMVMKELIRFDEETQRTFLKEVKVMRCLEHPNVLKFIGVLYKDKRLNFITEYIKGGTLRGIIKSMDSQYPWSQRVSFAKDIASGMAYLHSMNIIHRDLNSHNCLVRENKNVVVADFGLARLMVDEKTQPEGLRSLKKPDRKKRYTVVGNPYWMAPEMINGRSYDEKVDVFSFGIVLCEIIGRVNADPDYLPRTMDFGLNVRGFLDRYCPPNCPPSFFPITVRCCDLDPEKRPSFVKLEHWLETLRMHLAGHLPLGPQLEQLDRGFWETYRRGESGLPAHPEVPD

Row | SMILES | pKd [1] | Kd (LIM domain kinase 1) | Kd [2] | Kd [3] | Kd (Ephrin type-B receptor 2) | Kd [4] | pKd [5] | Kd [6] | Kd [7] | Kd [1] | Kd [8] | Kd [5] | pKd [8]
1 | CC(=O)c1cnc2ccc(-c3cc(Cl)c(O)c(Cl)c3)nc2c1N[C@H]1CC[C@H](CN(C)C)CC1 | 6.18 | > 30 µM (inactive) | 0.126 µM (active) | 0.288 µM (active) | 0.149 µM (active) | 0.014 µM (active) | 6.49 | > 30 µM (inactive) | 1.91 µM (active) |  |  |  | 
2 | CCNC(=O)C#Cc1ccc2c(c1)NC(=O)/C2=C(\Nc1ccc(CN(C)C)cc1)c1ccccc1 |  | > 30 µM (inactive) | > 30 µM (inactive) | > 30 µM (inactive) | > 30 µM (inactive) | 0.136 µM (active) |  | > 30 µM (inactive) | > 30 µM (inactive) | > 30 µM (inactive) | > 30 µM (inactive) | > 30 µM (inactive) | 
3 | C=CC(=O)N1CCC[C@H](n2c(=O)n(-c3ccc(Oc4ccccc4)cc3)c3c(N)ncnc32)C1 |  | > 30 µM (inactive) | > 30 µM (inactive) | > 30 µM (inactive) | > 30 µM (inactive) | > 30 µM (inactive) |  | > 30 µM (inactive) | > 30 µM (inactive) | > 30 µM (inactive) | > 30 µM (inactive) | > 30 µM (inactive) | 
4 | Cc1nc2cc(-c3nn(C(C)C)c4ncnc(N)c34)ccc2o1 |  | 1.85 µM (active) | > 30 µM (inactive) | > 30 µM (inactive) | > 30 µM (inactive) |  |  | > 30 µM (inactive) | > 30 µM (inactive) | > 30 µM (inactive) | > 30 µM (inactive) | 2.38 µM (active) | 
5 | COCc1c(-c2ccc(NC(=O)Nc3cc(C(F)(F)F)ccc3F)c(F)c2)c2c(N)ncnn2c1CN1CCOCC1 |  | > 30 µM (inactive) | > 30 µM (inactive) | > 30 µM (inactive) | > 30 µM (inactive) | > 30 µM (inactive) |  | > 30 µM (inactive) | > 30 µM (inactive) | > 30 µM (inactive) | > 30 µM (inactive) | > 30 µM (inactive) | 
6 | COc1cc(Nc2ncc3c(n2)-c2ccc(Cl)cc2C(c2c(F)cccc2OC)=NC3)ccc1C(=O)O [ALISERTIB] |  |  | > 30 µM (inactive) |  | > 30 µM (inactive) | > 30 µM (inactive) |  |  | > 30 µM (inactive) |  | > 30 µM (inactive) | > 30 µM (inactive) | 
7 | O=C(Nc1c[nH]nc1-c1nc2cc(CN3CCOCC3)ccc2[nH]1)NC1CC1 [AT-9283] |  |  | > 30 µM (inactive) | > 30 µM (inactive) | > 30 µM (inactive) | 0.082 µM (active) |  | > 30 µM (inactive) | > 30 µM (inactive) | > 30 µM (inactive) | 0.801 µM (active) | > 30 µM (inactive) | 
8 | CNC(=O)c1ccccc1Sc1ccc2c(/C=C/c3ccccn3)n[nH]c2c1 [AXITINIB] |  |  |  | > 30 µM (inactive) |  |  |  |  |  |  |  | > 30 µM (inactive) | 
9 | CC(C)(C)c1nc(-c2cccc(NS(=O)(=O)c3c(F)cccc3F)c2F)c(-c2ccnc(N)n2)s1 [DABRAFENIB] |  | 0.033 µM (active) | > 30 µM (inactive) | 0.364 µM (active) | > 30 µM (inactive) |  |  | > 30 µM (inactive) | > 30 µM (inactive) |  | > 30 µM (inactive) | 0.283 µM (active) | 
10 | Cn1cc(C2=C(c3cn(C4CCN(Cc5ccccn5)CC4)c4ccccc34)C(=O)NC2=O)c2ccccc21 [ENZASTAURIN] |  |  |  | > 30 µM (inactive) |  |  |  |  |  |  |  | > 30 µM (inactive) | 
11 | C[C@@H](Oc1cc(-n2cnc3ccc(CN4CCN(C)CC4)cc32)sc1C(N)=O)c1ccccc1C(F)(F)F [GSK-461364] |  |  |  | > 30 µM (inactive) |  |  |  |  |  |  |  | > 30 µM (inactive) | 
12 | O=C(Nc1cc(C(F)(F)F)cc(C(F)(F)F)c1)c1cc(Cl)ccc1O [IMD-0354] |  |  | > 30 µM (inactive) |  | > 30 µM (inactive) | > 30 µM (inactive) |  |  | > 30 µM (inactive) | > 30 µM (inactive) | > 30 µM (inactive) | > 30 µM (inactive) | 
13 | CNC(=O)c1nn(C)c2c1C(C)(C)Cc1cnc(Nc3ccc(N4CCN(C)CC4)cc3)nc1-2 [MILCICLIB] |  | > 30 µM (inactive) |  | > 30 µM (inactive) | 0.767 µM (active) | > 30 µM (inactive) |  | > 30 µM (inactive) | > 30 µM (inactive) | > 30 µM (inactive) |  | > 30 µM (inactive) | 
14 | Cc1[nH]c(/C=C2\C(=O)Nc3ccccc32)c(C)c1CCC(=O)O [ORANTINIB] |  |  |  |  | > 30 µM (inactive) |  |  |  | > 30 µM (inactive) |  |  | > 30 µM (inactive) | 7.92
15 | NC(=O)c1c(OCc2c(F)cc(Br)cc2F)nsc1NC(=O)NCCCCN1CCCC1 [OSI-632] |  |  | > 30 µM (inactive) |  | > 30 µM (inactive) | 0.515 µM (active) |  |  | > 30 µM (inactive) |  | > 30 µM (inactive) | > 30 µM (inactive) | 
16 | CCOc1cc2ncc(C#N)c(Nc3ccc(F)c(Cl)c3)c2cc1NC(=O)/C=C/CN(C)C [PELITINIB] |  | > 30 µM (inactive) | 1.39 µM (active) | > 30 µM (inactive) | > 30 µM (inactive) |  |  | > 30 µM (inactive) | > 30 µM (inactive) | > 30 µM (inactive) |  | > 30 µM (inactive) | 
17 | CC(=O)NCC(=O)N1[C@@H]2CC[C@H]1c1ccc(Nc3ncc(C(F)(F)F)c(NC4CCC4)n3)cc12 [PF-03814735] |  |  | 2.19 µM (active) |  | > 30 µM (inactive) | 0.309 µM (active) |  |  | 1.06 µM (active) |  | 0.746 µM (active) | > 30 µM (inactive) | 
18 | CNC(=O)c1cc(Oc2ccc(NC(=O)Nc3cc(C(C)(C)C)nn3-c3ccc4ncccc4c3)c(F)c2)ccn1 [REBASTINIB] |  | 0.535 µM (active) | > 30 µM (inactive) | 1.07 µM (active) | > 30 µM (inactive) |  |  | > 30 µM (inactive) | > 30 µM (inactive) | > 30 µM (inactive) | 1.88 µM (active) | 1.28 µM (active) | 
19 | O=C(NOCCO)c1cc(CN2OCCCC2=O)c(F)c(F)c1Nc1ccc(I)cc1F [RO-4987655] |  |  |  | > 30 µM (inactive) |  |  |  |  |  |  |  | > 30 µM (inactive) | 
20 | N#CC[C@H](C1CCCC1)n1cc(-c2ncnc3[nH]ccc23)cn1 [RUXOLITINIB] |  |  |  | > 30 µM (inactive) |  |  |  |  |  |  |  | > 30 µM (inactive) | 

— ChEMBL document CHEMBL3991601, “The target landscape of clinical kinase drugs” (Science, 2017)
